Measured values published in PubChem BioAssay AID256 (DTP/NCI, 2004).
Several values for one entry are separate records, joined by “and”; a condition that tells them apart may be missing. Equal values may be shown once. Inconclusive results and toxic doses are left out.

Tested on: CD2F1 mice, L1210 leukemia ip, survival T/C
Experiment: NCI In Vivo Anticancer Drug Screen. Data for tumor model L1210 Leukemia (intraperitoneal) in CD2F1 (CDF1) mice
Conditions: endpoint: mean survival time, higher = longer survival
How it was run: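 Ratio T/C, where T is the treated-group value and C the vehicle-dosed control value, from mice implanted with a transplantable tumor.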

[1] = dose: 100.0 mg/kg/injection, schedule: Q01DX009 (ip), vehicle: saline with Tween-80
[2] = dose: 200.0 mg/kg/injection, schedule: Q01DX009 (ip), vehicle: saline with Tween-80
[3] = dose: 400.0 mg/kg/injection, schedule: Q01DX009 (ip), vehicle: saline with Tween-80
[4] = dose: 100.0 mg/kg/injection, schedule: Q01DX001 (ip), vehicle: saline with Tween-80
[5] = dose: 100.0 mg/kg/injection, schedule: Q04DX003 (ip), vehicle: saline with Tween-80
[6] = dose: 200.0 mg/kg/injection, schedule: Q01DX001 (ip), vehicle: saline with Tween-80
[7] = dose: 200.0 mg/kg/injection, schedule: Q04DX003 (ip), vehicle: saline with Tween-80
[8] = dose: 400.0 mg/kg/injection, schedule: Q04DX003 (ip), vehicle: saline with Tween-80
[9] = dose: 100.0 mg/kg/injection, schedule: Q01DX009 (ip), vehicle: saline
[10] = dose: 200.0 mg/kg/injection, schedule: Q01DX009 (ip), vehicle: saline

In the case of `Cc1ccc(N/C=C\c2cc[n+](C)cc2)nc1`, the T/C (dose: 75.0 mg/kg/injection, schedule: Q01DX001 (ip), vehicle: saline) is reported as 103 % of control, the T/C (dose: 150.0 mg/kg/injection, schedule: Q01DX001 (ip), vehicle: saline) is reported as 106 % of control and the T/C (dose: 300.0 mg/kg/injection, schedule: Q01DX001 (ip), vehicle: saline) is reported as 105 % of control.

With `CC(=O)CC(C)(C)O` the T/C [1] was 95 % of control, the T/C (dose: 100.0 mg/kg/injection, schedule: Q04DX003 (ip), vehicle: saline sonified) was 102 % of control and the T/C [2] was 96 % of control. The T/C (dose: 200.0 mg/kg/injection, schedule: Q04DX003 (ip), vehicle: saline sonified) was 100 % of control, the T/C [3] was 95 % of control and the T/C (dose: 400.0 mg/kg/injection, schedule: Q04DX003 (ip), vehicle: saline sonified) was 97 % of control.

With `CCS(=O)(=O)Nc1ccc(Nc2c3ccccc3nc3ccccc23)c(OC)c1` the T/C (dose: 5.0 mg/kg/injection, schedule: Q01DX009 (ip), vehicle: saline) was 156 % of control.

For `BrC1CC(Br)c2c1c1c(c3c2C(Br)CC3Br)C(Br)CC1Br` (centres undefined), the T/C (dose: 12.5 mg/kg/injection, schedule: Q01DX009 (ip), vehicle: saline with Tween-80) was 100 % of control and 105 % of control, the T/C (dose: 25.0 mg/kg/injection, schedule: Q01DX009 (ip), vehicle: saline with Tween-80) was 102 % of control and 104 % of control and the T/C (dose: 50.0 mg/kg/injection, schedule: Q01DX009 (ip), vehicle: saline with Tween-80) was 104 % of control and 105 % of control. The T/C [1] was 97 % of control and 108 % of control, the T/C [2] was 114 % of control and 105 % of control and the T/C [3] was 104 % of control and 105 % of control.

`O=C(NCCS)Nc1ccccc1` was tested, and the T/C [4] was 102 % of control, the T/C (dose: 100.0 mg/kg/injection, schedule: Q04DX002 (ip), vehicle: saline with Tween-80) was 104 % of control and the T/C [5] was 94 % of control. For the same compound, the T/C [6] was 98 % of control, the T/C (dose: 200.0 mg/kg/injection, schedule: Q04DX002 (ip), vehicle: saline with Tween-80) was 96 % of control and the T/C [7] was 86 % of control and 91 % of control. For the same compound, the T/C (dose: 400.0 mg/kg/injection, schedule: Q04DX002 (ip), vehicle: saline with Tween-80) was 96 % of control and the T/C [8] was 86 % of control and 92 % of control.

For `O=C(NO)c1ccccc1`, the T/C (dose: 25.0 mg/kg/injection, schedule: Q01DX009 (ip), vehicle: saline) was 96 % of control, the T/C (dose: 50.0 mg/kg/injection, schedule: Q01DX009 (ip), vehicle: saline) was 94 % of control and the T/C [4] was 110 % of control. The T/C (dose: 100.0 mg/kg/injection, schedule: Q01DX009 (ip), vehicle: saline sonified) was 103 % of control, the T/C [9] was 98 % of control and 109 % of control and the T/C [5] was 98 % of control. The T/C [6] was 103 % of control, the T/C (dose: 200.0 mg/kg/injection, schedule: Q01DX009 (ip), vehicle: saline sonified) was 115 % of control and the T/C [10] was 121 % of control and 102 % of control. For the same compound, the T/C [7] was 96 % of control, the T/C (dose: 400.0 mg/kg/injection, schedule: Q01DX001 (ip), vehicle: saline with Tween-80) was 117 % of control and the T/C [8] was 116 % of control.

For `Cc1cnccc1Br`, the T/C (dose: 25.0 mg/kg/injection, schedule: Q01DX009 (ip), vehicle: water) was 96 % of control, the T/C (dose: 50.0 mg/kg/injection, schedule: Q01DX009 (ip), vehicle: water) was 96 % of control and the T/C (dose: 100.0 mg/kg/injection, schedule: Q01DX009 (ip), vehicle: water) was 86 % of control. For the same compound, the T/C (dose: 200.0 mg/kg/injection, schedule: Q01DX009 (ip), vehicle: water) was 90 % of control.

With `Cc1nccn1C(C)c1ccccc1` (centres undefined) the T/C (dose: 10.0 mg/kg/injection, schedule: Q04DX003 (ip), vehicle: saline) was 105 % of control, the T/C (dose: 20.0 mg/kg/injection, schedule: Q04DX003 (ip), vehicle: saline) was 94 % of control and the T/C (dose: 40.0 mg/kg/injection, schedule: Q04DX003 (ip), vehicle: saline) was 92 % of control.

With `O=C(O)C(=Cc1ccnc2ccccc12)C(=O)O` the T/C [9] was 100 % of control, the T/C [5] was 111 % of control and the T/C [10] was 94 % of control. For the same compound, the T/C [7] was 100 % of control, the T/C (dose: 400.0 mg/kg/injection, schedule: Q01DX009 (ip), vehicle: saline) was 111 % of control and the T/C [8] was 98 % of control.
